Results on one molecule are retold here after PMC4574636 (Biochemical pharmacology, 2015).

One data set concerns the target T1, human AOX1 V1016R (Homo sapiens, UniProt Q06278, V1016R).
T1 sequence (Q06278 1-1338 V1016R): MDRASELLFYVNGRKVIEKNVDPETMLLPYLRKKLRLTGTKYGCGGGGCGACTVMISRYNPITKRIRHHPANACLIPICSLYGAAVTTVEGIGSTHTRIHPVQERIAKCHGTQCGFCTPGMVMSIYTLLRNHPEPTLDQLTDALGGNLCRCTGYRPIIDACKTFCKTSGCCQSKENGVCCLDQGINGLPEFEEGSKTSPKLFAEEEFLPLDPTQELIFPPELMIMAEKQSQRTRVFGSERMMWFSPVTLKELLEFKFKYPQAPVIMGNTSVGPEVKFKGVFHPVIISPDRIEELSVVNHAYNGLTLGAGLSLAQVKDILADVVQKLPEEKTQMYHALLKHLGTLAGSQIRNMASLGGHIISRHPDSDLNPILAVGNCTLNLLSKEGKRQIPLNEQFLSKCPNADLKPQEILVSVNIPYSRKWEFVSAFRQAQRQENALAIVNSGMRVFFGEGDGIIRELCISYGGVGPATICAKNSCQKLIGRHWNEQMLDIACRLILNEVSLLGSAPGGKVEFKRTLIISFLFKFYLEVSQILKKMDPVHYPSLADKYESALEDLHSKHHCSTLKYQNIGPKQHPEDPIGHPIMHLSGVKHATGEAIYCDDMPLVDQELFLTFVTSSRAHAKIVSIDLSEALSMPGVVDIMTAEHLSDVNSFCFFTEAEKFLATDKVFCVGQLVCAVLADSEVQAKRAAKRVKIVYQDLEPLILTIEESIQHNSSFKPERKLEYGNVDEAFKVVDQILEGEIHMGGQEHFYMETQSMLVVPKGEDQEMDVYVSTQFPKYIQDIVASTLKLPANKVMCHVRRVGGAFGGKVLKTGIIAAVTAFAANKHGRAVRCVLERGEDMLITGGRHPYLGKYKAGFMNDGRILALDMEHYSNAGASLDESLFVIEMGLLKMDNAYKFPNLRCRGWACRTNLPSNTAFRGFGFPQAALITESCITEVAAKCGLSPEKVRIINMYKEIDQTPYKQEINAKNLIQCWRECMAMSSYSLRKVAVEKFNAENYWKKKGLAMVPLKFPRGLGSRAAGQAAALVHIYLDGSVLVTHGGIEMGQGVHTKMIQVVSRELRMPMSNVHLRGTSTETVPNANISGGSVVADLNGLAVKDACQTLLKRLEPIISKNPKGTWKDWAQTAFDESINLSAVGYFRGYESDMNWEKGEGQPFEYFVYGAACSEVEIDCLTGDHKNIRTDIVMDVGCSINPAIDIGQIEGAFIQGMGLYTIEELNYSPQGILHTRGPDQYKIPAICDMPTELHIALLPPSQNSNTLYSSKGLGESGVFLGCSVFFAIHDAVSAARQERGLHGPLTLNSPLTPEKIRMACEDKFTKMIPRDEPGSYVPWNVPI
As to the kind of experiment: Methotrexate hydroxylation by purified recombinant human AOX1 V1016R mutant. As to conditions: V1016R single mutant. The format is in vitro ADME.

The target in data set [1] is T2, aldehyde oxidase (AOX) (Cavia porcellus, UniProt H9TB17).
T2 sequence (H9TB17 1-1332): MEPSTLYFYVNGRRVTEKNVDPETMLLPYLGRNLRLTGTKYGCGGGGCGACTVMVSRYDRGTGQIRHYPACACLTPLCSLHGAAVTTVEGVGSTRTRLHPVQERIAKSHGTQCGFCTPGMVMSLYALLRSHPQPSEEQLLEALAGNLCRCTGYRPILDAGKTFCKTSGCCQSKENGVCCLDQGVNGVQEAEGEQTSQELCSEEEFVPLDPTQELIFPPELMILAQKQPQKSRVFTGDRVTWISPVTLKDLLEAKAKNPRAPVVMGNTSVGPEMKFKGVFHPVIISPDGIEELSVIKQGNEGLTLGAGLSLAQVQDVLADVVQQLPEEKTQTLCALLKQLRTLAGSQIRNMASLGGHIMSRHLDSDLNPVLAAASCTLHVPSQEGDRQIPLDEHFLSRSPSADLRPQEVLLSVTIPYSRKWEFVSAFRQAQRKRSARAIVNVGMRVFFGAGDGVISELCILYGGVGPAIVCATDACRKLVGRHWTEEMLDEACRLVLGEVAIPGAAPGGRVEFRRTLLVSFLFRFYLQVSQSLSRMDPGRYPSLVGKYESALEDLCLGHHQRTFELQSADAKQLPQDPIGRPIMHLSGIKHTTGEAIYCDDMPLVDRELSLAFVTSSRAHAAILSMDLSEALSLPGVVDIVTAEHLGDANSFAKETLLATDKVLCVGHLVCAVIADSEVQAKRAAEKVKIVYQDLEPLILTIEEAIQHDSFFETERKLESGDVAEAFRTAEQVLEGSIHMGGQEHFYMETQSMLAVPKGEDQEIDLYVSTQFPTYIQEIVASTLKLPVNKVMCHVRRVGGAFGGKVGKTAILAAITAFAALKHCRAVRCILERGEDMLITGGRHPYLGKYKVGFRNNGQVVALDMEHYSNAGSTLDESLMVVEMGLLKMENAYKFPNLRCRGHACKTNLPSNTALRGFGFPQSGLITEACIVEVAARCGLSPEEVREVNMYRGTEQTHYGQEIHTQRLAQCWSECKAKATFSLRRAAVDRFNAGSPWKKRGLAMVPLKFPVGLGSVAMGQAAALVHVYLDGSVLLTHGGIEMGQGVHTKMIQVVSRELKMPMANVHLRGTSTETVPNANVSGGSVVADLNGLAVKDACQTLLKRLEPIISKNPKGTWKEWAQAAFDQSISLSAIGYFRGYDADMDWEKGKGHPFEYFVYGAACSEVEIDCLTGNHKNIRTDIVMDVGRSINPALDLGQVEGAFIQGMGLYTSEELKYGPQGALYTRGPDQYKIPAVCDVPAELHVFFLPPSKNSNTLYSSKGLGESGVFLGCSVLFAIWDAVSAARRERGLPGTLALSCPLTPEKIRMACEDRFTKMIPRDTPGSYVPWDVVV
As to conditions: guinea pig liver cytosol, mean ± SEM; estimate, saturation incomplete.

Data set [2] relates to aldehyde oxidase (AOX). As to conditions: rat liver cytosol, mean ± SEM, estimate, saturation incomplete.
For data set [3] the following is noted: cited from earlier work.

Read-outs that look alike come from different tables or passages of the source.

Consider `CN(Cc1cnc2nc(N)nc(N)c2n1)c1ccc(C(=O)N[C@@H](CCC(=O)O)C(=O)O)cc1` [Methotrexate, 4-amino-N^1^0-methylpteroglutamic acid], for which, at human AOX1 V1016R (Figure 5), the “Km / affinity vs wild type” value is given as “decreased affinity for methotrexate compared to wild type AOX1”. Further, the “Methotrexate hydroxylation activity vs wild type” value at human AOX1 V1016R (p < 0.01, Figure 5) was “significant decrease”. Further, the maximum rate (Vmax) was 70 ± 10 pmol/min/mg on aldehyde oxidase (AOX) [1], 50 ± 3 pmol/min/mg in the data set on aldehyde oxidase (AOX) [2] and 40 to 70 pmol/min/mg in the data set with aldehyde oxidase (AOX) [2] (listed as methotrexate). Further, in data set [3] (conventional dose levels of methotrexate in primates), the 7-hydroxymethotrexate in vivo entry is recorded as “not detected”. Moreover, the “Parent compound excreted as 7-hydroxymethotrexate” value in data set [3] (high dose (> 50 mg methotrexate/kg) therapy regimes) was at most 33%.
